Earlier results, collected in publication PMC3780389 (Experimental neurology, 2012).

Key:
[1] = system: APP23 transgenic mouse model of AD; details: ref Qing, et al., 2008
3x-Tg AD mice = details: ref Green, et al., 2008, Hempen and Brion, 1996
hAPP Tg AD mice = details: chronic administration, ref Ricobaraza, et al., 2011

For CCCC(CCC)C(=O)O [Valproic acid], the Aβ plaque number [1] is given as “significantly reduce Aβ plaque number”.

In the case of NC(=O)c1cccnc1 [nicotinamide], the Thr231-phosphotau (3x-Tg AD mice) is listed as “selectively decreases” and the “level of acetylated α-tubulin” value (3x-Tg AD mice) is listed as “increases”.

In the case of “sodium 4-phenylbutyrate [sodium 4-phenylbutyrate (4-PBA)]”, the Aβ levels (hAPP Tg AD mice) is listed as “decreased Aβ levels”.
